Test results: patent US5142051A, “N-phosphonylmethoxyalkyl derivatives of pyrimidine and purine bases and a therapeutical composition therefrom with antiviral activity” (Ceskoslovenska Akademie Ved, priority 1986, dated 1992)
≈ marks a conversion by molar mass, not a printed value. Like-named read-outs stand apart in the source and are kept apart here.

Assays:
[1] = system: HSV-1 (F); assay: Inhibition of virus-induced cytopathic effect in PRK-cells, HSV-1 (F); type: cell-based; conditions: read-out: MIC50
[2] = system: HSV-1 (KOS); assay: Inhibition of virus-induced cytopathic effect in PRK-cells, HSV-1 (KOS); type: cell-based; conditions: read-out: MIC50
[3] = Cytotoxicity: observable morphological changes in uninfected tissue culture cells; conditions: rabbit, prk cells
[4] = system: HSV-2 (196); assay: Inhibition of virus-induced cytopathic effect in PRK-cells, HSV-2 (196); type: cell-based; conditions: read-out: MIC50
[5] = system: HSV-2 (G); assay: Inhibition of virus-induced cytopathic effect in PRK-cells, HSV-2 (G); type: cell-based; conditions: read-out: MIC50
[6] = system: HSV-1 TK^- (Field); assay: Inhibition of virus-induced cytopathic effect in PRK-cells, HSV-1 TK^- (Field); type: cell-based; conditions: Human alphaherpesvirus 1, PRK, read-out: MIC50
[7] = system: HSV-1 (McIntyre); assay: Inhibition of virus-induced cytopathic effect in PRK-cells, HSV-1 (McIntyre); type: cell-based; conditions: read-out: MIC50
[8] = system: HSV-2 (Lyons); assay: Inhibition of virus-induced cytopathic effect in PRK-cells, HSV-2 (Lyons); type: cell-based; conditions: read-out: MIC50
[9] = system: vaccinia virus (VV); assay: microbe, parasite or virus in culture; type: cell-based; conditions: Orthopoxvirus vaccinia, PRK, read-out: MIC50
[10] = system: HSV-1 TK^- (Cheng); assay: Inhibition of virus-induced cytopathic effect in PRK-cells, HSV-1 TK^- (Cheng); type: cell-based; conditions: Human alphaherpesvirus 1, PRK, read-out: MIC50
[11] = system: strains or mutants devoid of thymidine kinase; conditions: in words; cited from earlier work
[12] = system: DNA viruses; conditions: background statement, in words; cited from earlier work
[13] = system: vaccinia virus; type: cell-based; conditions: in words
[14] = system: TK^- mutants of herpes viruses type 1 and 2; assay: Antiviral effect against TK^- mutants of herpes viruses; type: cell-based; conditions: in words
[15] = in words; cited from earlier work
[16] = Human alphaherpesvirus 1, HSV-1 (F), PRK-cells, 50% inhibition of cytopathic effect
[17] = Human alphaherpesvirus 1, HSV-1 (KOS), PRK-cells, 50% inhibition of cytopathic effect
[18] = Human alphaherpesvirus 2, HSV-2 (196), PRK-cells, 50% inhibition of cytopathic effect
[19] = Human alphaherpesvirus 2, HSV-2 (G), PRK-cells, 50% inhibition of cytopathic effect
[20] = Human alphaherpesvirus 1, HSV-1 (McIntyre), PRK-cells, 50% inhibition of cytopathic effect
[21] = Human alphaherpesvirus 2, HSV-2 (Lyons), PRK-cells, 50% inhibition of cytopathic effect

Compound	EC50 [1, 16]	EC50 [2, 17]	MCC [3]	EC50 [4, 18]	EC50 [5, 19]	EC50 [6]	EC50 [7, 20]	EC50 [8, 21]	EC50 [9]	further results
NNc1ncnc2c1ncn2CC(CO)OCP(=O)(O)O (racemic) [6-Hydrazinopurin-9-yl, (RS)--CH2 OH]	70 µg/mL (≈ 220 µM)	150 µg/mL (≈ 471 µM)	400 µg/mL	70 µg/mL (≈ 220 µM)	70 µg/mL (≈ 220 µM)	40 µg/mL (≈ 126 µM)	70 µg/mL (≈ 220 µM)	70 µg/mL (≈ 220 µM)	20 µg/mL (≈ 62.8 µM)	
O=P(O)(O)COC(CO)Cn1cnc2c(NO)ncnc21 (racemic) [6-Hydroxylaminopurin-9-yl, (RS)--CH2 OH]	20 µg/mL (≈ 62.7 µM)	20 µg/mL (≈ 62.7 µM)	400 µg/mL	20 µg/mL (≈ 62.7 µM)	20 µg/mL (≈ 62.7 µM)		7 µg/mL (≈ 21.9 µM)	20 µg/mL (≈ 62.7 µM)	7 µg/mL (≈ 21.9 µM)	
Nc1nc2c(ncn2CC(CO)OCP(=O)(O)O)c(=O)[nH]1 (racemic) [Guanin-9-yl, (RS)--CH2 OH]	7 µg/mL (≈ 21.9 µM)	20 µg/mL (≈ 62.7 µM)	400 µg/mL	20 µg/mL (≈ 62.7 µM)	20 µg/mL (≈ 62.7 µM)	10 µg/mL (≈ 31.3 µM)	2 µg/mL (≈ 6.27 µM)	20 µg/mL (≈ 62.7 µM)	2 µg/mL (≈ 6.27 µM)	
Nc1nc(N)c2ncn(C[C@@H](CO)OCP(=O)(O)O)c2n1 [2-Aminoadenin-9-yl, (S)--CH2 OH]	7 µg/mL (≈ 22 µM)	20 µg/mL (≈ 62.8 µM)	200 µg/mL	7 µg/mL (≈ 22 µM)	4 µg/mL (≈ 12.6 µM)		2 µg/mL (≈ 6.28 µM)	7 µg/mL (≈ 22 µM)	0.7 µg/mL (≈ 2.2 µM)	
Nc1nc(N)c2ncn(CCOCP(=O)(O)O)c2n1 [2-Aminoadenin-9-yl, H]	2 µg/mL (≈ 6.94 µM)	7 µg/mL (≈ 24.3 µM)	200 µg/mL	2 µg/mL (≈ 6.94 µM)	2 µg/mL (≈ 6.94 µM)		2 µg/mL (≈ 6.94 µM)	2 µg/mL (≈ 6.94 µM)	70 µg/mL (≈ 243 µM)	
Nc1ncc2ncn(CCOCP(=O)(O)O)c2n1 [2-Aminopurin-9-yl, H]	70 µg/mL (≈ 256 µM)	70 µg/mL (≈ 256 µM)	200 µg/mL	20 µg/mL (≈ 73.2 µM)	20 µg/mL (≈ 73.2 µM)	150 µg/mL (≈ 549 µM)	70 µg/mL (≈ 256 µM)	7 µg/mL (≈ 25.6 µM)	200 µg/mL (≈ 732 µM)	EC50 [10]: 150 µg/mL (≈ 549 µM)
Nc1nccc2c1ncn2C[C@@H](CO)OCP(=O)(O)O [3-Deazaadenin-9-yl, (S)--CH2 OH]	0.2 µg/mL (≈ 0.662 µM)	0.2 µg/mL (≈ 0.662 µM)	40 µg/mL	0.7 µg/mL (≈ 2.32 µM)	0.1 µg/mL (≈ 0.331 µM)		0.7 µg/mL (≈ 2.32 µM)	0.2 µg/mL (≈ 0.662 µM)		
O=c1[nH]c(=O)n([C@H]2C[C@H](O)[C@@H](CO)O2)cc1C=CBr [5-(2-Bromovinyl)-2'-deoxyuridine, 5-(2-bromovinyl)-2' -deoxyuridine, reference compound]			400 µg/mL						7 µg/mL (≈ 21 µM)	EC50 ([1]; Human alphaherpesvirus 1, PRK): 0.02 µg/mL (≈ 0.06 µM); EC50 ([2]; Human alphaherpesvirus 1, PRK): 0.02 µg/mL (≈ 0.06 µM); EC50 ([4]; Human alphaherpesvirus 2, PRK): 1 µg/mL (≈ 3 µM); EC50 ([5]; Human alphaherpesvirus 2, PRK): 4 µg/mL (≈ 12 µM); sensitivity of strains or mutants devoid of thymidine kinase [11]: usually also resistant; EC50 ([7]; Human alphaherpesvirus 1, PRK): 0.02 µg/mL (≈ 0.06 µM); EC50 ([8]; Human alphaherpesvirus 2, PRK): 10 µg/mL (≈ 30 µM)
Nc1ncnc2c1ncn2C[C@@H](CO)OCP(=O)(O)O [Adenin-9-yl, (S)--CH2 OH, 9-(S)-(2-phosphonylmethoxy-3-hydroxypropyl)adenine, reference compound]	7 µg/mL (≈ 23.1 µM)	20 µg/mL (≈ 66 µM)	100 µg/mL	7 µg/mL (≈ 23.1 µM)	20 µg/mL (≈ 66 µM)		1 µg/mL (≈ 3.3 µM)	20 µg/mL (≈ 66 µM)	7 µg/mL (≈ 23.1 µM)	antiviral activity [12]: very potent antivirals, acting specifically against DNA viruses; effect against vaccinia virus [13]: highly effective; effect where Zovirax, DHPG fail [11]: effective even in those cases where the above-mentioned drugs fail; effect against TK^- mutants of herpes viruses type 1 and 2 [14]: highly effective
Nc1ccn(C[C@@H](CO)OCP(=O)(O)O)c(=O)n1 [Cytosin-1-yl, (S)--CH2 OH]			100 µg/mL			7 µg/mL (≈ 25.1 µM)			0.2 µg/mL (≈ 0.716 µM)	EC50 ([1]; Human alphaherpesvirus 1, PRK): 2 µg/mL (≈ 7.16 µM); EC50 ([2]; Human alphaherpesvirus 1, PRK): 7 µg/mL (≈ 25.1 µM); EC50 ([4]; Human alphaherpesvirus 2, PRK): 2 µg/mL (≈ 7.16 µM); EC50 [10]: 10 µg/mL (≈ 35.8 µM); EC50 ([5]; Human alphaherpesvirus 2, PRK): 20 µg/mL (≈ 71.6 µM); EC50 ([7]; Human alphaherpesvirus 1, PRK): 1 µg/mL (≈ 3.58 µM); EC50 ([8]; Human alphaherpesvirus 2, PRK): 20 µg/mL (≈ 71.6 µM)
Nc1nc2c(ncn2COC(CO)CO)c(=O)[nH]1 [DHPG, 9-(1,3-dihydroxy-2-propoxymethyl)guanine]										water-solubility [15]: low water-solubility; sensitivity of strains or mutants devoid of thymidine kinase [11]: not sensitive
Nc1nc2c(ncn2CCOCP(=O)(O)O)c(=O)[nH]1 [Guanin-9-yl, H]	2 µg/mL (≈ 6.92 µM)	7 µg/mL (≈ 24.2 µM)	40 µg/mL	2 µg/mL (≈ 6.92 µM)	4 µg/mL (≈ 13.8 µM)		2 µg/mL (≈ 6.92 µM)	7 µg/mL (≈ 24.2 µM)	7 µg/mL (≈ 24.2 µM)	
Nc1ncnc2c1ncn2CCOCP(=O)(O)O [PMEA, 9-(2-phosphonylmethoxyethyl)adenine]										antiviral activity [12]: very potent antivirals, acting specifically against DNA viruses; effect against vaccinia virus [13]: highly effective; effect where Zovirax, DHPG fail [11]: effective even in those cases where the above-mentioned drugs fail; effect against TK^- mutants of herpes viruses type 1 and 2 [14]: highly effective
Cc1cn(C[C@@H](CO)OCP(=O)(O)O)c(=O)[nH]c1=O [Thymin-1-yl, (S)--CH2 OH]	150 µg/mL (≈ 510 µM)	70 µg/mL (≈ 238 µM)	400 µg/mL	150 µg/mL (≈ 510 µM)	20 µg/mL (≈ 68 µM)	200 µg/mL (≈ 680 µM)	70 µg/mL (≈ 238 µM)	70 µg/mL (≈ 238 µM)	300 µg/mL (≈ 1020 µM)	EC50 [10]: 400 µg/mL (≈ 1360 µM)
Nc1nc2c(ncn2COCCO)c(=O)[nH]1 [Zovirax]										sensitivity of strains or mutants devoid of thymidine kinase [11]: not sensitive
